Key:
HCT-116 = assay: Compound was tested for cytotoxicity against human colon tumor cell line (HCT116); assay type: functional, cell-based
M109 [1] = assay: Compound was tested in vivo against M109 using Madison murine lung carcinoma (M109) tumor model at 200 mg/kg; assay type: functional, Mus musculus
[2] = molecular target: Tubulin alpha chain (Sus scrofa) (UniProt P02550); assay: Compound was tested in vitro for inhibition of tubulin polymerization, expressed as ratio to that obtained for paclitaxel; assay type: functional; settings: Homo sapiens
M109 [3] = assay: Compound was tested in vivo against M109 using Madison murine lung carcinoma (M109) tumor model at 40 mg/kg; assay type: functional, Mus musculus
M109 [4] = assay: Compound was tested in vivo against M109 using Madison murine lung carcinoma (M109) tumor model at 32 mg/kg; assay type: functional, Mus musculus

Sequence of Tubulin alpha chain (Sus scrofa) (P02550 whole entry, looked up): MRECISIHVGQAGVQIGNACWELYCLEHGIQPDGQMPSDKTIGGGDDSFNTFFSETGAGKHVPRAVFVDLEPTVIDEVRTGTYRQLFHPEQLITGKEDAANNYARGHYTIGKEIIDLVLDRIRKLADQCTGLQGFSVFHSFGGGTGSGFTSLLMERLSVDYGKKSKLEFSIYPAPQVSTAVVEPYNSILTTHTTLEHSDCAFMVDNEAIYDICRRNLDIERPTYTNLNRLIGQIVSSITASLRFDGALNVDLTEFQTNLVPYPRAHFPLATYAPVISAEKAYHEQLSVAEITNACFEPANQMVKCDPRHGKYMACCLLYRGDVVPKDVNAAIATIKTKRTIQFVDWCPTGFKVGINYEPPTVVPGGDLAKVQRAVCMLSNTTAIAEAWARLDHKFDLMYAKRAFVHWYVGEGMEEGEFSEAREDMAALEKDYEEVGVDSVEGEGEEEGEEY

Tubulin polymerization [2]	Compound	IC50 (HCT-116) [nM]	T/C (M109 [1]) [%]	T/C (M109 [3]) [%]	T/C (M109 [4]) [%]
0.8	CC(=O)O[C@H]1C(=O)[C@@]2(C)C([C@H](OC(=O)c3ccccc3)[C@]3(O)C[C@H](OC(=O)[C@H](O)[C@@H](NC(=O)c4ccccc4)c4ccccc4)C(C)=C1C3(C)C)[C@]1(OC(C)=O)CO[C@@H]1[C@@H](Cl)[C@@H]2O (some centres undefined)	1.2	203		
1.1	CC(=O)O[C@H]1C(=O)[C@@]2(C)C([C@H](OC(=O)c3ccccc3)[C@]3(O)C[C@H](OC(=O)[C@H](O)[C@@H](NC(=O)c4ccccc4)c4ccccc4)C(C)=C1C3(C)C)[C@]1(OC(C)=O)CO[C@@H]1[C@@H](Br)[C@@H]2O (some centres undefined)	2.6			
1	CC(=O)O[C@H]1C(=O)[C@@]2(C)[C@H]([C@H](OC(=O)c3ccccc3)[C@]3(O)C[C@H](OC(=O)[C@H](O)[C@@H](NC(=O)c4ccccc4)c4ccccc4)C(C)=C1C3(C)C)[C@]1(OC(C)=O)CO[C@@H]1C[C@@H]2O [PACLITAXEL]			215	
0.7	CC(=O)O[C@H]1C(=O)[C@@]2(C)C([C@H](OC(=O)c3ccccc3)[C@]3(O)C[C@H](OC(=O)[C@H](O)[C@@H](NC(=O)OC(C)(C)C)c4ccccc4)C(C)=C1C3(C)C)[C@]1(OC(C)=O)CO[C@@H]1C[C@@H]2O (some centres undefined)	1.8			177

Compound	Tubulin polymerization [2]	IC50 (HCT-116) [nM]	T/C (M109 [1]) [%]	T/C (M109 [3]) [%]	T/C (M109 [4]) [%]
CC(=O)O[C@H]1C(=O)[C@@]2(C)C([C@H](OC(=O)c3ccccc3)[C@]3(O)C[C@H](OC(=O)[C@H](O)[C@@H](NC(=O)c4ccccc4)c4ccccc4)C(C)=C1C3(C)C)[C@]1(OC(C)=O)CO[C@@H]1[C@@H](F)[C@@H]2O (some centres undefined)	1	1.4			
CC(=O)O[C@H]1C(=O)[C@@]2(C)C([C@H](OC(=O)c3ccccc3)[C@]3(O)C[C@H](OC(=O)[C@H](O)[C@@H](NC(=O)OC(C)(C)C)c4ccccc4)C(C)=C1C3(C)C)[C@]1(OC(C)=O)CO[C@@H]1[C@@H](F)[C@@H]2O (some centres undefined)	0.6	0.2			

Reference: ChEMBL document CHEMBL1134238, “Synthesis of metabolically blocked paclitaxel analogues” (Bioorg Med Chem Lett, 2001)
